Consider nine compounds from patent EP0888340B1, “4-(BENZO-1,3-DIOXOLYL)-PYRROLIDINE-3-CARBOXYLIC ACID DERIVATIVES AS ENDOTHELIN ANTAGONISTS” (Abbott Laboratories, priority 1996, dated 1997).

Structures are written as SMILES.

The assay deals with T1, ETB Receptor (Sus scrofa, UniProt P35463).
T1 construct: Porcine cerebellum was homogenized in 25 volumes (w/v) of 10 mM Hepes (pH 7.4); from tissue; host or cells: porcine cerebellum membranes
T1 sequence (P35463 27-443): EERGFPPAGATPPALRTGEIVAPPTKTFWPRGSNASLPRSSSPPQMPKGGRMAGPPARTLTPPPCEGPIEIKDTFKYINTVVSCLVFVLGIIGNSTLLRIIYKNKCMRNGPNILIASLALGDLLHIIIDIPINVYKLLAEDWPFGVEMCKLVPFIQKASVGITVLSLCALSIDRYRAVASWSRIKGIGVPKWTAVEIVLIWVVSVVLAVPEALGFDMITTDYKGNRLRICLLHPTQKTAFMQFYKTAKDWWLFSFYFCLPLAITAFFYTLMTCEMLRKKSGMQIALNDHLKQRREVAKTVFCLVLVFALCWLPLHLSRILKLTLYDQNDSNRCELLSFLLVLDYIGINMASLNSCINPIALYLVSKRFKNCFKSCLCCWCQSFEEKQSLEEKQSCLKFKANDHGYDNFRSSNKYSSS
As to the kind of experiment: ETB receptor binding assay: [125I]ET-3 binding to membranes. The following applies: test compound 1 µM; displacement of 0.1 nM [125I]ET-3; Porcine cerebellum membranes; 4 hours at 25 °C. How it is done: Preparation of membranes from Porcine cerebellum:
Porcine cerebellum was homogenized in 25 volumes (w/v) of 10 mM Hepes (pH 7.4) containing 0.25 M sucrose and protease inhibitors (3 mM EDTA, 0.1 mM PMSF, and 5 µg/ml Pepstatin A) by 3-10 sec polytron at 13,500 rpm with 10 sec intervals. The mixture was centrifuged at 1000xg for 10 min. The supernatant was collected and centrifuged at 30,000xg for 30 min. The precipitate was resuspended in Buffer A (20 mM Tris, 100 mM NaCl, 10 mM MgCl2, pH 7.4) containing the aforementioned protease inhibitors and centrifuged again. The final pellet was resuspended in Buffer A containing protease inhibitors and stored at -80°C until used. Protein content was determined by the Bio-Rad dye-binding protein assay.
[^125I]ET-3 binding to membranes:
Binding assays were performed in 96-well microtiter plates pretreated with 0.1% BSA. Membranes prepared from cells were diluted ∼100 fold in Buffer B (20 mM Tris, 100 mM NaCl, 10 mM MgCl2, pH 7.4, with 0.2% BSA, 0.1 mM PMSF, 5 µg/mL Pepstatin A, 0.025% bacitracin, and 3 mM EDTA) to a final concentration of 0.2 mg/mL of protein. In competition studies, membranes (0.02 mg) were incubated with 0.1 nM of [^125I]ET-3 in Buffer B (final volume: 0.2 mL) in the presence of increasing concentrations of unlabeled ET-3 or a test compound for 4 hours at 25 °C. After incubation, unbound ligands were separated from bound ligands by a vacuum filtration method using glass-fiber filter strips in PHD cell harvesters (Cambridge Technology, Inc., MA), followed by washing the filter strips with saline (1 mL) for three times. Nonspecific binding was determined in the presence of 1 µM ET-1. The per cent inhibition at a concentration of 1 µM is shown. […]
Consider `CCc1cccc(C)c1NC(=O)CN1C[C@H](c2ccc3c(c2)OCO3)[C@@H](C(=O)O)[C@@H]1c1ccc(OC)cc1` [Example 18, trans,trans-2-(4-methoxyphenyl)-4-(1,3-benzodioxol-5-yl)-1-((2-ethyl-6-methyl)phenylaminocarbonylmethyl)-pyrrolidine-3-carboxylic acid], for which the inhibition (as a rule, the relative decrease from the control value, in per cent) at 1 µM is 94.9%.

On to `CCc1cccc(CC)c1NC(=O)CN1C[C@H](c2cc(OC)c3c(c2)OCO3)[C@@H](C(=O)O)[C@@H]1c1ccc(OC)c(F)c1` (racemic) [Example 8, trans,trans-2-(3-Fluoro-4-methoxyphenyl)-4-(7-methoxy-1,3-benzodioxol-5-yl)-1-((2,6-diethyl)phenylaminocarbonylmethyl)-pyrrolidine-3-carboxylic acid], for which at 1 µM the inhibition was 93.6%. Compound `CCCOc1ccc([C@H]2[C@H](C(=O)O)[C@@H](c3ccc4c(c3)OCO4)CN2CC(=O)Nc2c(CC)cccc2CC)cc1OC` (racemic) [Example 9, trans,trans-2-(3-methoxy-4-propoxyphenyl)-4-(1,3-benzodioxol-5-yl)-1-((2,6-diethyl)phenylaminocarbonylmethyl)-pyrrolidine-3-carboxylic acid] returned an inhibition at 1 µM of 94.8%.

Compound `COc1ccc([C@H]2[C@H](C(=O)O)[C@@H](c3ccc4c(c3)OCO4)CN2CC(=O)Nc2c(OC)cccc2OC)cc1` [Example 16, trans,trans-2-(4-methoxyphenyl)-4-(1,3-benzodioxol-5-yl)-1-((2,6-dimethoxy)phenylaminocarbonylmethyl)-pyrrolidine-3-carboxylic acid] gave an inhibition at 1 µM of 92.3%. In the case of `CCOc1ccc([C@H]2[C@H](C(=O)O)[C@@H](c3ccc4c(c3)OCO4)CN2CC(=O)Nc2c(CC)cccc2CC)cc1F` (racemic) [Example 7, trans,trans-2-(3-Fluoro-4-ethoxyphenyl)-4-(1,3-benzodioxol-5-yl)-1-((2,6-diethyl)phenylaminocarbonylmethyl)-pyrrolidine-3-carboxylic acid] it was 94.5%.

In the case of `COc1ccc([C@H]2[C@H](C(=O)O)[C@@H](c3ccc4c(c3)OCO4)CN2CC(=O)Nc2c(C(C)C)cccc2C(C)C)cc1` [Example 21, trans,trans-2-(4-methoxyphenyl)-4-(1,3-benzodioxol-5-yl)-1-((2,6-diisopropyl)phenylaminocarbonylmethyl)-pyrrolidine-3-carboxylic acid], the inhibition at 1 µM stood at 97.1%. `CCCOc1ccc([C@H]2[C@H](C(=O)O)[C@@H](c3cc(OC)c4c(c3)OCO4)CN2CC(=O)Nc2c(CC)cccc2CC)cc1OC` [Example 13, trans,trans-2-(3-methoxy-4-propoxyphenyl)-4-(7-methoxy-1,3-benzodioxol-5-yl)-1-((2,6-diethyl)phenylaminocarbonylmethyl)-pyrrolidine-3-carboxylic acid] displayed an inhibition at 1 µM of 91.3%.

Consider `CCCOc1ccc([C@H]2[C@H](C(=O)O)[C@@H](c3ccc4c(c3)OCO4)CN2CC(=O)Nc2c(C)cc(C)cc2C)cc1` (racemic) [Example 3, trans,trans-2-(4-Propoxyphenyl)-4-(1,3-benzodioxol-5-yl)-1-((2,4,6-trimethyl)phenylaminocarbonylmethyl)-pyrrolidine-3-carboxylic acid], for which the inhibition at 1 µM was 82.1%. As for `COc1ccc([C@H]2[C@H](C(=O)O)[C@@H](c3ccc4c(c3)OCO4)CN2CC(=O)Nc2c(C)cc(C)cc2C)cc1F` (racemic) [Example 2, trans,trans-2-(3-Fluoro-4-methoxyphenyl)-4-(1,3-benzodioxol-5-yl)-1-((2,4,6-trimethyl)phenylaminocarbonylmethyl)-pyrrolidine-3-carboxylic acid], the figure is 91.5%.
